Data taken from US12098147B2, “Compound having novel structure, complex comprising same, anti-cancer pharmaceutical composition, and anti-cancer drug” (ETNOVA THERAPEUTICS CORP., priority 2018, dated 2024).
Where two headings read alike, the source gives them in different places.

Columns and labels:
MDA-MB-231 = experiment: CCK-8 cell viability, MDA-MB-231 breast cancer cell line; type: cell-based, human; settings: 24 hours, mean ± SD of 2 to 3 experiments
Procedure: (§1) To identify the anticancer effect of the compounds L1, L2, and L3 according to Examples 1 to 3 of the present disclosure, and the complexes L1Pt, L2Pt, and L3Pt according to Examples 4 to 6 of the disclosure, the cell viability analysis of cancer cells using CCK-8 was performed on several cancer cell lines (colorectal cancer cell line (HT-29 cell line), breast cancer cell line (MCF-7 and MDA-MB-231), cervical cancer cell line (HeLa cell line), liver cancer cell line (Huh-7 and HepG2), brain glioma cell line (C6), lung cancer (A549), prostate cancer (PC3), kidney cancer (Caki-2), normal liver cell line (AML-12), embryonic kidney cell line (HEK-293), neural stem cell line (NE-4C) and normal breast epithelial cell line (MCF10a)).
(§2) CCK-8 (Cell counting kit-8) is analyzed using a highly water-soluble tetrazolium salt-[…]. [2-(2-methoxy-4-nitrophenyl)-3-(4-nitrophenyl)(2,4-disulfophenyl)-2H-tetrazolium, monosodium salt] is reduced under the presence of an electron medium to produces a water-soluble formazan orange dye. The amount of the formazan dye produced by dehydrogenase in a cell is directly proportional to the number of living cells.
(§3) In an experimental method for evaluating the properties of the compounds according to the present disclosure, various cancer cell lines derived from humans and normal cell lines of each tissue derived from humans and mice were used in this experiment. A complete growth medium corresponding to each cell line and having 10% of heat-inactivated FBS added thereto was used to maintain corresponding cells. The maintained cells were suspended in a volume of 200 μl at a density of 1 or 1.5×10^4 cells and planted in each well of a 96 well plate. The cells were attached to a 37° C. and 5% CO2 incubator for more than 14 hours, and we waited for a stable state. The next day, we removed the medium from the well. 100 μl of serum-free medium containing drugs of various concentrations (0 (control), 2.5, 5, 10, 20, 30, 40, 50, 100, 200 μM) was added to each well and the cells was cultured therein. On 22 hours after the incubation, 10 μl of CCK-8 solution was added to each well, followed by incubation for 2 hours. A plate on which the culture was completed was measured in terms of absorbance at 450 nm using a microplate reader.
(§4) Cell Viability Calculation:
(§5) • A: Absorbance value measured in a control well • B: Absorbance value measured in a well containing the drug
(§6) In Table 1 below, each compound was applied to the cells at 0, 2.5, 5, 10, 20, 30, 40, 50, 100, and 200 μM, and the cells was cultured in a medium free of serum for 24 hours. The measured absorbance value was converted to a % value based on a value of 0, such that a IC50 value was calculated. Each experiment was performed 2 to 3 times and a standard deviation value was obtained.

HT-29 cell line = experiment: CCK-8 cell viability, HT-29 colorectal cancer cell line; type: cell-based, human; settings: serum-free medium, 24 hours, mean ± SD of 2 to 3 experiments
Procedure: as §1, §2, §3, §4, §5, §6

A549 = experiment: CCK-8 cell viability, A549 lung cancer cell line; type: cell-based, human; settings: serum-free medium, 24 hours, mean ± SD of 2 to 3 experiments
Procedure: as §1, §2, §3, §4, §5, §6

NE-4C = experiment: CCK-8 cell viability, NE-4C neural stem cell line; type: cell-based; settings: for IC50: serum-free medium, 24 hours, CCK-8, mean ± SD of 2 to 3 experiments, read-out: IC50 NC-4C (Neural stem cell); for toxicity against brain neurons, in words: brain neurons (NE-4C), FIG. 4
Procedure: as §2, §3, §4, §5, §6

AML12 = experiment: CCK-8 cell viability, AML-12 normal liver cell line; type: cell-based; settings: for IC50: serum-free medium, 24 hours, CCK-8, mean ± SD of 2 to 3 experiments; for toxicity against normal hepatocytes, in words: normal hepatocytes (AML12), FIG. 4
Procedure: as §2, §3, §4, §5, §6

HeLa cell line = experiment: CCK-8 cell viability, HeLa cervical cancer cell line; type: cell-based, human; settings: serum-free medium, 24 hours, mean ± SD of 2 to 3 experiments
Procedure: as §1, §2, §3, §4, §5, §6

MCF10a = experiment: CCK-8 cell viability, MCF10a normal breast epithelial cell line; type: cell-based; settings: for IC50: serum-free medium, 24 hours, CCK-8, mean ± SD of 2 to 3 experiments; for cytotoxicity against breast epithelial cells, in words: breast epithelial cells (MCF10a), FIG. 4
Procedure: as §1, §2, §3, §4, §5, §6

MCF-7 = experiment: CCK-8 cell viability, MCF-7 breast cancer cell line; type: cell-based, human; settings: 24 hours, mean ± SD of 2 to 3 experiments
Procedure: as §1, §2, §3, §4, §5, §6

HepG2 = experiment: CCK-8 cell viability, HepG2 liver cancer cell line; type: cell-based, human; settings: 24 hours, mean ± SD of 2 to 3 experiments
Procedure: as §1, §2, §3, §4, §5, §6

PC3 = experiment: CCK-8 cell viability, PC3 prostate cancer cell line; type: cell-based, human; settings: 24 hours, mean ± SD of 2 to 3 experiments
Procedure: as §1, §2, §3, §4, §5, §6

Huh-7 = experiment: CCK-8 cell viability, Huh-7 liver cancer cell line; type: cell-based, human; settings: 24 hours, mean ± SD of 2 to 3 experiments
Procedure: as §1, §2, §3, §4, §5, §6

C6 = experiment: CCK-8 cell viability, C6 brain glioma cell line; type: cell-based, human; settings: 24 hours, mean ± SD of 2 to 3 experiments
Procedure: as §1, §2, §3, §4, §5, §6

[1] = test system: several cancer cell lines; experiment: CCK-8 cell viability, panel of cancer cell lines compared in words (FIGS. 3a to 3e); type: cell-based, human; settings: for effect on cancer cell lines compared with the rest of the compounds, in words / toxic effect on cancer cell lines compared with cisplatin and BTA, in words / cell toxicity on cancer cell lines compared with BTA, in words / cell toxicity on cancer cell lines compared with cisplatin, in words: Log IC50 comparison, FIGS. 3a to 3e; for effect on cancer cell lines compared with the rest of the compounds, in words: comparator the rest of the compounds; for toxic effect on cancer cell lines compared with cisplatin and BTA, in words: comparators cisplatin and BTA; for cell toxicity on cancer cell lines compared with BTA, in words: comparator BTA; for cell toxicity on cancer cell lines compared with cisplatin, in words: comparator cisplatin
Procedure: as §1, §2, §3
Further, FIGS. 3a to 3e show a graph in which a IC50 value which is obtained based on 2 to 3 times executions of the cell viability analysis is converted to a Log IC50 value. […] The comparative reliability values for BTA were expressed as […], ##p<0.01, and ## #p<0.001. A red line represents the value of cisplatin. A blue line represents the value of BTA.

HEK-293 = experiment: CCK-8 cell viability, HEK-293 embryonic kidney cell line; type: cell-based; settings: serum-free medium, 24 hours, mean ± SD of 2 to 3 experiments, read-out: IC50 HEK293 (embryonic kidney)
Procedure: as §1, §2, §3, §4, §5, §6

Caki-2 = experiment: CCK-8 cell viability, Caki-2 kidney cancer cell line; type: cell-based, human; settings: serum-free medium, 24 hours, mean ± SD of 2 to 3 experiments
Procedure: as §1, §2, §3, §4, §5, §6

[2] = Homo sapiens, HepG2, serum-free medium
[3] = Homo sapiens, Huh-7, serum-free medium
[4] = Rattus norvegicus, C6, serum-free medium
[5] = Homo sapiens, MDA-MB-231, serum-free medium
[6] = Homo sapiens, MCF7, serum-free medium

Structure (SMILES)	IC50 (MDA-MB-231; serum-free medium)	IC50 (HT-29 cell line)	IC50 (A549)	IC50 (NE-4C)	IC50 (AML12)	IC50 (HeLa cell line)	IC50 (MCF10a)	IC50 (MCF-7; serum-free medium)	IC50 (HepG2; serum-free medium)	IC50 (PC3; serum-free medium)	IC50 (Huh-7; serum-free medium)	IC50 (C6; serum-free medium)	IC50 (HEK-293)	IC50 (Caki-2)	IC50 (NE-4C; Neural stem cell)	toxicity against brain neurons, in words (NE-4C)	cytotoxicity against breast epithelial cells, in words (MCF10a)	IC50 (Huh-7; [3])	IC50 (C6; [4])	toxicity against normal hepatocytes, in words (AML12)	further results
N.N.[Cl][Pt][Cl] [Cisplatin, cisplatin, reference compound]	181 ± 48.7 µM	39.1 ± 0.61 µM	> 500 µM	9.01 ± 0.28 µM	32.1 ± 4.45 µM	26.2 ± 5.61 µM	96 ± 6.72 µM	204 ± 27.3 µM	54.2 ± 31.8 µM	> 500 µM	38.6 ± 18.5 µM	227 ± 34.3 µM	65.5 ± 4.06 µM	> 500 µM							effect on cancer cell lines, in words ([1]; Log IC50, FIGS. 3a to 3e, no comparator): did not have a great effect on lung cancer, prostate cancer, and kidney cancer
NCC(N)C(=O)Nc1ccc(-c2nc3ccccc3s2)cc1 (centres unmarked) [Example L1, 2,3-diamoniumtrifluoroacetate-N-(4-benzothiazol-2-yl-phenyl)-propionamide]															36.8 ± 3.66 µM	greater toxicity than BTA did	weak cytotoxicity	69.1 ± 5.25 µM	77.8 ± 9.73 µM		IC50 (HepG2; [2]): 5.94 ± 0.501 µM; IC50 (PC3; Homo sapiens, PC-3, serum-free medium): 94.99 ± 0.82 µM; effect on cancer cell lines compared with the rest of the compounds, in words [1]: superior effects on breast cancer, liver cancer, brain glioma, lung cancer, prostate cancer, and kidney cancer than the rest of the compounds did; toxic effect on cancer cell lines compared with cisplatin and BTA, in words [1]: greater toxic effect against cancer cell lines of colorectal cancer, breast cancer, liver cancer, brain glioma, lung cancer, prostate cancer, and kidney cancer than the cisplatin and BTA did
NCC(N)C(=O)Nc1ccc(-c2nc3ccccc3s2)cc1.[Cl][Pt][Cl] (centres unmarked) [Example L1Pt]	80.8 ± 10.5 µM	42.6 ± 5.61 µM	167 ± 11.2 µM	25.7 ± 1.66 µM	139.1 ± 0.85 µM	64.75 ± 0.31 µM	46.9 ± 5.14 µM	59 ± 11.1 µM	7.49 ± 0.159 µM	55.7 ± 7.47 µM	69.4 ± 1.24 µM	93.3 ± 22.7 µM	54.9 ± 2.83 µM	106 ± 8.54 µM		greater toxicity than BTA did	weak cytotoxicity				effect on cancer cell lines compared with the rest of the compounds, in words [1]: superior effects on breast cancer, liver cancer, brain glioma, lung cancer, prostate cancer, and kidney cancer than the rest of the compounds did; toxic effect on cancer cell lines compared with cisplatin and BTA, in words [1]: greater toxic effect against cancer cell lines of colorectal cancer, breast cancer, liver cancer, brain glioma, lung cancer, prostate cancer, and kidney cancer than the cisplatin and BTA did
O=C(Nc1ccc(-c2nc3ccccc3s2)cc1)C(C/N=C/c1ccccc1O)/N=C/c1ccccc1O (centres unmarked) [Example L2, N-(4-benzothiazol-2-yl-phenyl)-2,3-bis-[(2-hydroxy-benzylidene)-amino]-propionamide]															28.23 ± 0.06 µM	greater toxicity than BTA did	weak cytotoxicity	95.9 ± 15 µM	143 ± 32.7 µM	did not exhibit liver cytotoxicity	IC50 (MDA-MB-231; [5]): 152 ± 19.9 µM; IC50 (HeLa cell line; Homo sapiens, HeLa): 47.1 ± 6.07 µM; IC50 (MCF-7; [6]): 98.2 ± 7.92 µM; IC50 (HepG2; [2]): 14.2 ± 7.06 µM; cell toxicity on cancer cell lines compared with BTA, in words [1]: greater cell toxicity against colorectal cancer, breast cancer, liver cancer, brain glioma, lung cancer, prostate cancer, and kidney cancer than BTA did; cell toxicity on cancer cell lines compared with cisplatin, in words [1]: greater toxic effect on cancer cell lines on lung cancer, prostate cancer, and kidney cancer than cisplatin did
O=C(Nc1ccc(-c2nc3ccccc3s2)cc1)C1CN=Cc2ccccc2[O][Pt][O]c2ccccc2C=N1 (centres unmarked) [Example L2Pt]	> 500 µM	173 ± 3.23 µM	> 500 µM	47 ± 4.12 µM	> 500 µM	221 ± 15.8 µM	> 500 µM	> 500 µM	31.6 ± 3.62 µM	> 500 µM	197 ± 3.75 µM	> 500 µM	212 ± 14.9 µM	> 500 µM		greater toxicity than BTA did	weaker cytotoxicity or no cytotoxicity than cisplatin and BTA did			did not exhibit liver cytotoxicity	cell toxicity on cancer cell lines compared with BTA, in words [1]: greater cell toxicity on colorectal cancer than BTA did
O=C(Nc1ccc(-c2nc3ccccc3s2)cc1)C1CNC(c2ccccn2)=N1 (centres unmarked) [Example L3, N-(4-(benzo[d]thiazol-2-yl)phenyl)-2-(pyridin-2-yl)-4,5-dihydro-1H-imidazole-4-carboxamide]															22.4 ± 2.44 µM	greater toxicity than BTA did	weaker cytotoxicity or no cytotoxicity than cisplatin and BTA did	178 ± 2.6 µM	142 ± 15.4 µM	did not exhibit liver cytotoxicity	IC50 (MDA-MB-231; [5]): > 500 µM; IC50 (HeLa cell line; Homo sapiens, HeLa): 99 ± 3.54 µM; IC50 (MCF-7; [6]): 190 ± 16.6 µM; cell toxicity on cancer cell lines compared with BTA, in words [1]: greater cell toxicity on colorectal cancer breast cancer and brain glioma than BTA did; cell toxicity on cancer cell lines compared with cisplatin, in words [1]: greater cell toxicity on prostate cancer and kidney cancer than cisplatin did
